Counter-ions that a name gives are not always drawn. Like-named read-outs stand apart in the source and are kept apart here.

The target in assay [1] is T1, MAO-A (Rattus norvegicus, UniProt P21396).
T1 construct: The MAO enzyme source was a homogenate of rat brain in 0.3 M sucrose 1:20 w/v; from tissue; host or cells: rat brain homogenate
T1 sequence (P21396 1-526): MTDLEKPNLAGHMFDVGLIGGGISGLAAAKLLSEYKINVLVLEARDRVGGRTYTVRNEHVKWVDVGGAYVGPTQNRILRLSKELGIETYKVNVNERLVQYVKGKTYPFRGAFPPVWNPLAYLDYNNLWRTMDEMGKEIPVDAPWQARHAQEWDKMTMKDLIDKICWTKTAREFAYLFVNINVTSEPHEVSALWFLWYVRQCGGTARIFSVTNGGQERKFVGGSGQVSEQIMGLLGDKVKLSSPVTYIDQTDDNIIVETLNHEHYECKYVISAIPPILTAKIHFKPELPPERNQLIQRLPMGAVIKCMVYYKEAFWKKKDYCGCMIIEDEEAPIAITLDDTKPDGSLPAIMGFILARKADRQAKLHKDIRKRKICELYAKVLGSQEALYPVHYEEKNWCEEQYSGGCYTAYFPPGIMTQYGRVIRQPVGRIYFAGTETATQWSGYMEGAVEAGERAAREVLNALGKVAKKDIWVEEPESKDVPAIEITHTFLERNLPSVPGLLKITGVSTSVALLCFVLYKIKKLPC
The assay can be described thus: Inhibition of MAO activity in vitro (5-HT as substrate). The class given is biochemical. On the procedure: (§1) Inhibition of MAO Activity In Vitro Experimental Protocol
(§2) The reaction was then stopped by addition of citric acid. Radioactivity indicates the production of 5-HT and PEA metabolites formed as a result of MAO activity.
(§3) A mixture of toluene: ethyl acetate (1:1) was added to the reaction and mixed for 10 minutes, followed by 5 minutes of centrifugation at 1760 g. The upper phase was taken for radioactive determination by liquid scintillation spectrometry.

The target of assay [2] is T2, MAO-B (Rattus norvegicus, UniProt P19643).
T2 construct: The MAO enzyme source was a homogenate of rat brain in 0.3 M sucrose 1:20 w/v; from tissue; host or cells: rat brain homogenate
T2 sequence (P19643 1-520): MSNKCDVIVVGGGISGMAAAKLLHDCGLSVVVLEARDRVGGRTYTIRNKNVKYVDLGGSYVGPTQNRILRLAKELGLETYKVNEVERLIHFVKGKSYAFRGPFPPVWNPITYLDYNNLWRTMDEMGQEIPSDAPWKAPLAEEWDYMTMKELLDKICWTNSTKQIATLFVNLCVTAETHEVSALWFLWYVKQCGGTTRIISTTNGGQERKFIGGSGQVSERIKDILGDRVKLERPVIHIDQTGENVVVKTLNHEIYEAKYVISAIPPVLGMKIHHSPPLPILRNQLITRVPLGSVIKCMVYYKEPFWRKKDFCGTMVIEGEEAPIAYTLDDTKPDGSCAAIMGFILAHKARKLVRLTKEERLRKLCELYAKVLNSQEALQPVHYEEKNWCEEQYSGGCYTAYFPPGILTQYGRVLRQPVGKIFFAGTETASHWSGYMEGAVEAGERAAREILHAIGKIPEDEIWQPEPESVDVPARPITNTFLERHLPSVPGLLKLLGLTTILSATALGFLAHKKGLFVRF
The assay can be described thus: Inhibition of MAO activity in vitro (PEA as substrate). The class given is biochemical. On the procedure:
as §1, §2, §3

In assay [3] the target is T1, MAO-A. The assay is described as follows: Inhibition of MAO activity in vivo, MAO-A. On the procedure: (§4) Inhibition of MAO Activity In Vivo: Chronic Treatment Experimental Protocol
(§5) Rats were treated with the test compounds (Table 5) at several dose levels by oral administration, one dose daily for 7-21 days, and decapitated 2 hours after the last dose. The activities of MAO-A and MAO-B were determined in the brain, liver and intestine as described in the previous example. Inhibition of MAO activity was calculated by dividing MAO activity in the treated rats by MAO activity in the control rats (saline treated, MAO activity in these rats was taken as 100%).
as §3

Assay [4] deals with T2, MAO-B. The assay is described as follows: Inhibition of MAO activity in vivo, MAO-B. Here is the method: as §4, §5, §3
Assay [5] has as its target T1, MAO-A. The assay can be described thus: Inhibition of MAO activity in vivo, MAO-A. The conditions noted are these: tissue not stated; for inhibition at 10 µmol/kg: 10 μmol/kg (3.2-4 mg/kg), acute.
Assay [6] deals with T2, MAO-B. The assay is described as follows: Inhibition of MAO activity in vivo, MAO-B. As to conditions: tissue not stated; for inhibition at 10 µmol/kg: 10 μmol/kg (3.2-4 mg/kg), acute.
Setting [7] is: rat brain homogenate, 60 min pre-incubation at 37° C., 14C 5-HT substrate, read-out: In vitro IC50 A.
The mark [8] stands for this setting: rat brain homogenate, 60 min pre-incubation at 37° C., 14C PEA substrate, read-out: In vitro IC50 B.
Setting [9] is: oral, 1 mg/kg (2.9 μmol/kg), 7 days, tissue not stated.
Where [10] appears, read: oral, 15 mg/kg (44 μmol/kg), 7 days, tissue not stated.
Where [11] appears, read: oral, 150 μmol/kg, 7 days, tissue not stated.

By IC50 is commonly meant the concentration that gives 50% inhibition. Regarding `C#CCN(C)C1CCc2ccc(O)cc21` (racemic) [Cmpd 112, 3-(Methyl-Prop-2-Ynyl Amino)-5-Indanol], the results for the IC50 in assay [1] (setting [7]) and in assay [2] (setting [8]) were 0.03 µM and 0.01 µM, respectively.
For `C#CCN(C)C1CCc2c(O)cccc21` (racemic) [Cmpd 117, 1-(methyl-prop-2-ynylamino)-4-indanol] the same measures were 0.0083 µM and 0.07 µM.
`C#CCN(C)C1CCc2cccc(O)c21` (racemic) [Cmpd 118, 3-(methyl-prop-2-ynylamino)-4-indanol]: the values for the IC50 in assay [1] (setting [7]) and in assay [2] were 0.07 µM and 0.05 µM, respectively.
Consider `C#CCN(C)C1CCc2c(OC(C)=O)cccc21` (racemic) [Cmpd 119], for which the IC50 in assay [1] (setting [7]) turned out to be 0.018 µM; in assay [2] (setting [8]) it was 0.11 µM.
For `C#CCN(C)C1CCc2c(OC(=O)c3ccccc3)cccc21` (racemic) [Cmpd 120], in that order: 0.13 µM and 0.91 µM.
For `C#CCN(C)C1CCc2c(OC(=O)c3c(OC)cccc3OC)cccc21` (racemic) [Cmpd 121], in that order: 0.34 µM and 3 µM.
For `C#CCN(C)C1CCc2ccc(O)cc2C1` (racemic) [Cmpd 123, 7-(methyl-prop-2-ynylamino)-2-tetralinol] the same measures were 0.41 µM and 0.48 µM.
As to `C#CCN(C)C1CCc2ccc(OC(=O)c3ccccc3)cc2C1` (racemic) [Cmpd 124, 7-O-benzoyl-2-(methyl-prop-2-ynylamino)-tetralin Hcl], the IC50 in assay [1] (setting [7]) and in assay [2] (setting [8]) was 1.2 µM throughout.
On to `C#CCN(C)C1CCc2cc(OC(=O)c3ccccc3)c(OC(=O)c3ccccc3)cc21` (racemic) [Cmpd 137, 5,6-Di-O-Benzoyl-1-(Methyl-Prop-2-Ynyl-Amino)-Indan HCl], for which the IC50 in assay [1] (setting [7]) was 1.4 µM; in assay [2] (setting [8]), 21 µM.
For `C#CCN(C)C1CCc2cc(OC(=O)c3ccccc3)c(OC(=O)c3ccccc3)cc2C1` (racemic) [Cmpd 138, 6,7-di-O-benzoyl-2-(methyl-prop-2-ynylamino)-tetralin HCl], in that order: 1.2 µM and 0.4 µM.
As a reminder, the inhibition is the relative decrease from the control value, in per cent. As to `C#CCN[C@@H]1CCc2ccc(O)cc21` [Cmpd 101, (R)-3-prop-2-ynylamino-5-indanol mesylate], in assay [3] (po, read-out: % inhibition A), the inhibition at 5 mg/kg amounted to 35% and the inhibition at 25 mg/kg was determined as 57%. Also, in assay [4] (po, read-out: % inhibition B), the inhibition at 5 mg/kg worked out at 47% and the inhibition at 25 mg/kg was 65%.
Consider `C#CCN(C)[C@H]1CCc2ccc(O)cc21` [Cmpd 113, (S)3-(methyl-prop-2-ynylamino)-5-indanol], for which the values for the IC50 in assay [1] (setting [7]) and in assay [2] (setting [8]) were 12 µM and 23 µM, respectively.
For `C#CCN(C)[C@@H]1CCc2ccc(O)cc21` [Cmpd 114, (R)3-(methyl-prop-2-ynylamino)-5-indanol], in that order: 0.01 µM and 0.03 µM.
For `C#CCN(C)[C@@H]1CCc2ccc(OC(C)=O)cc21` [Cmpd 116] the same measures were 0.035 µM and 0.0056 µM.
For `C#CCN(C)[C@@H]1CCc2ccc(OC(=O)CCCC)cc21` [Cmpd 126], in that order: 0.058 µM and 0.13 µM.
As to `C#CCN(C)[C@H]1CCc2ccc(OC(=O)c3ccccc3)cc21` [Cmpd 127, Benzoic Acid (S)-3-(Methyl-Prop-2-Ynyl-Amino)-Indan-5-Yl Ester HCl], the IC50 in assay [1] (setting [7]) is 3.8 µM; in assay [2] (setting [8]), 5.6 µM.
Turning to `C#CCN(C)[C@@H]1CCc2ccc(OC(=O)c3ccccc3)cc21` [Cmpd 128], the inhibition at 1 mg/kg amounted to 87% in assay [3] (setting [9]) and 77% in assay [4] (setting [9]). Moreover, the inhibition at 5 mg/kg was determined as 95% in assay [3] (oral, 5 mg/kg (15 μmol/kg), 7 days, tissue not stated, read-out: % inhibition A) and 91% in assay [4] (oral, 5 mg/kg (15 μmol/kg), 7 days, tissue not stated, read-out: % inhibition B). Besides, the inhibition at 15 mg/kg in assay [3] (setting [10]) was 98%; in assay [4] (setting [10]), 91%. The IC50 in assay [1] (setting [7]) is 0.2 µM; in assay [2] (setting [8]), 1 µM.
As for `C#CCN(C)[C@H]1CCc2ccc(OC(=O)C(C)(C)C)cc21` [Cmpd 129], the values for the IC50 in assay [1] (setting [7]) and in assay [2] (setting [8]) were 2.5 µM and 17 µM, respectively.
For the compound `C#CCN(C)[C@@H]1CCc2ccc(OC(=O)C(C)(C)C)cc21` [Cmpd 130], the inhibition at 10 µmol/kg in assay [5] was found to be 24%; in assay [6], 22%. Moreover, the IC50 in assay [1] (setting [7]) was found to be 0.56 µM; in assay [2] (setting [8]) it was 2.5 µM.
For `C#CCN(C)[C@@H]1CCc2ccc(OC(=O)c3ccccc3C)cc21` [Cmpd 132], in that order: 41%, 37%, 1.1 µM and 9.9 µM.
For `C#CCN(C)[C@@H]1CCc2ccc(OC(=O)c3c(OC)cccc3OC)cc21` [Cmpd 134] the same measures were 9%, 0%, 1.2 µM and 5.9 µM.
As for `C#CCN(C)C1CCc2cc(O)c(O)cc2C1` (centres unmarked) [Cmpd 139, 6-(methyl-prop-2-ynylamino)-2,3-tetralindiol], the values for the IC50 in assay [1] (setting [7]) and in assay [2] (setting [8]) were 4.5 µM and 41 µM, respectively.
Take `C#CCN(C)[C@@H]1CCc2ccc(OC(=O)N(C)CC)cc21` [Cmpd 140]: in assay [3] (po, read-out: % inhibition A), the inhibition at 2 µmol/kg amounted to 6%, the inhibition at 10 µmol/kg was 51% and the inhibition at 50 µmol/kg was 65%. This compound returned an IC50 in assay [1] of 4.3 µM. For the same compound, the IC50 in assay [2] (setting [8]) came out at 12 µM. Further, in assay [4] (po, read-out: % inhibition B), the inhibition at 2 µmol/kg amounted to 10%, the inhibition at 10 µmol/kg came to 30% and the inhibition at 50 µmol/kg amounted to 73%.
With `C#CCN(C)C1CCc2cccc(OC(=O)N(C)CC)c21` (centres unmarked) [Cmpd 141], the IC50 in assay [1] (setting [7]) worked out at 65 µM; in assay [2] (setting [8]), 100 µM.
For `C#CCN(C)C1CCc2c(OC(=O)N(C)CC)cccc21` (centres unmarked) [Cmpd 142], in that order: 0.027 µM and 4 µM.
Consider `C#CCN(C)C1CCc2ccc(OC(=O)N(C)CCC)cc21` (centres unmarked) [Cmpd 143], for which the IC50 in assay [1] (setting [7]) is 5.6 µM; in assay [2] (setting [8]) it was 9.2 µM.
For `C#CCN(C)C1CCc2cccc(OC(=O)N(C)CCC)c21` (centres unmarked) [Cmpd 144], in that order: 71 µM and 63 µM.
As for `C#CCN[C@@H]1CCc2ccc(OC(=O)N(C)CC)cc21` [Cmpd 146], the inhibition at 100 µmol/kg in assay [5] (oral, 100 μmol/kg, 5 days) came to 56%; in assay [6] (oral, 100 μmol/kg, 5 days) it was 74%. Moreover, the inhibition at 50 µmol/kg in assay [3] (oral, 50 μmol/kg, 7 days, tissue not stated, read-out: % inhibition A) was 46%; in assay [4] (oral, 50 μmol/kg, 7 days, tissue not stated, read-out: % inhibition B), 52%. The values for the inhibition at 150 µmol/kg in assay [3] (setting [11]) and in assay [4] (setting [11]) were 74% and 87%, respectively. In addition, in assay [1] (read-out: In vitro IC50 A), the IC50 was 300 µM.
For the compound `C#CCN[C@@H]1CCc2ccc(OC(=O)N(C)CC)cc21` [Cmpd 147], the values for the IC50 in assay [1] (setting [7]) and in assay [2] (setting [8]) were 550 µM and above 1000 µM, respectively.
As for `C#CCNC1CCCc2ccc(OC(=O)N(C)CC)cc21` (centres unmarked) [Cmpd 148], the figures for the IC50 in assay [1] (setting [7]) and in assay [2] (setting [8]) were 500 µM and 100 µM, respectively.
Regarding `C#CCNC1CCc2ccc(OC(=O)N(C)CC)cc2C1` (centres unmarked) [Cmpd 149], the IC50 in assay [1] (setting [7]) came to 2 µM; in assay [2] (setting [8]), 100 µM.
“(S)-3-prop-2-ynylamino-5-indanol mesylate [Cmpd 100]”: the IC50 in assay [1] (setting [7]) came out at 500 µM; in assay [2] (setting [8]), 300 µM.
